This note sets out measurements from patent US9376442B2, “Methylpyrrolopyrimidinecarboxamides” (Takeda GmbH, priority 2009, dated 2016).

For the experiment, the target named is T1, PDE5A1 (Homo sapiens, UniProt O76074).
T1 construct: from tissue; host or cells: human platelets from fresh donor blood (10,000 x g supernatant of sonicated lysate)
Kind of experiment: Inhibition of type 5 phosphodiesterase (PDE5) activity, modified SPA test with human platelet lysate. Conditions: 0.5 μM cGMP, read-out: PDE5A1 inhibitory values [measured as −log IC50 (mol/l)] (converted). In kind it is biochemical. Summed up:
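Enzyme source is lysate from human platelets (10,000 g supernatant). Compound preincubated 5 min at 37° C in Tris pH 7.4 containing 1 μM motapizone and 10 nM of a PDE2 inhibitor. Reaction started with 0.5 μM cGMP ([3H] tracer) and run 15 min; SPA read-out, IC50 by non-linear regression.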
In the case of `COc1cc(-c2ncnc3c(C(=O)N[C@@H]4CN(C(=O)CO)C[C@H]4O)c(C)[nH]c23)c(OCC2CC2)cc1F` (relative stereo) [Example F113, 4-[2-(Cyclopropylmethoxy)-4-fluoro-5-methoxyphenyl]-N-[(3R*,4R*)-1-glycoloyl-4-hydroxypyrrolidin-3-yl]-6-methyl-5H-pyrrolo[3,2-d]pyrimidine-7-carboxamide], the IC50 is less than 1 nM.
`COc1cc(-c2ncnc3c(C(=O)N[C@@H]4CN(C(=O)[C@H](C)O)C[C@H]4O)c(C)[nH]c23)c(OCC2CC2)cc1F` (relative stereo) [Example F114, 4-[2-(Cyclopropylmethoxy)-4-fluoro-5-methoxyphenyl]-N-{(3R*,4R*)-4-hydroxy-1-[(2S)-2-hydroxypropanoyl]pyrrolidin-3-yl}-6-methyl-5H-pyrrolo[3,2-d]pyrimidine-7-carboxamide]: the IC50 was less than 1 nM.
In the case of `COc1cc(OCC2CC2)c(-c2ncnc3c(C(=O)N[C@@H]4CN(C(=O)CO)C[C@H]4O)c(C)[nH]c23)cc1F` (relative stereo) [Example F117, 4-[2-(Cyclopropylmethoxy)-5-fluoro-4-methoxyphenyl]-N-[(3R*,4R*)-1-glycoloyl-4-hydroxypyrrolidin-3-yl]-6-methyl-5H-pyrrolo[3,2-d]pyrimidine-7-carboxamide], the IC50 is less than 1 nM.
In the case of `COc1cc(OCC2CC2)c(-c2ncnc3c(C(=O)N[C@@H]4CN(C(=O)[C@H](C)O)C[C@H]4O)c(C)[nH]c23)cc1F` (relative stereo) [Example F118, 4-[2-(Cyclopropylmethoxy)-5-fluoro-4-methoxyphenyl]-N-{(3R*,4R*)-4-hydroxy-1-[(2S)-2-hydroxypropanoyl]pyrrolidin-3-yl}-6-methyl-5H-pyrrolo[3,2-d]pyrimidine-7-carboxamide], the IC50 is less than 1 nM.
For the molecule `COc1ccc(OCC2CC2)c(-c2ncnc3c(C(=O)N[C@@H]4CN(C(=O)CO)C[C@H]4O)c(C)[nH]c23)c1` (relative stereo) [Example F119, 4-[2-(Cyclopropylmethoxy)-5-methoxyphenyl]-N-[(3R*,4R*)-1-glycoloyl-4-hydroxypyrrolidin-3-yl]-6-methyl-5H-pyrrolo[3,2-d]pyrimidine-7-carboxamide], the IC50 is 1 to 10 nM.
Under `CC(=O)N1CCC(NC(=O)c2c(C)[nH]c3c(-c4c(OCC5CC5)ccc5c4OCO5)ncnc23)CC1` [Example E1, N-(1-Acetylpiperidin-4-yl)-4-[5-(cyclopropylmethoxy)-1,3-benzodioxol-4-yl]-6-methyl-5H-pyrrolo[3,2-d]pyrimidine-7-carboxamide] stands less than 1 nM; under `CCC(=O)N1CCC(NC(=O)c2c(C)[nH]c3c(-c4c(OCC5CC5)ccc5c4OCO5)ncnc23)CC1` [Example E2, 4-[5-(Cyclopropylmethoxy)-1,3-benzodioxol-4-yl]-6-methyl-N-(1-propionylpiperidin-4-yl)-5H-pyrrolo[3,2-d]pyrimidine-7-carboxamide], less than 1 nM; under `COCC(=O)N1CCC(NC(=O)c2c(C)[nH]c3c(-c4c(OCC5CC5)ccc5c4OCO5)ncnc23)CC1` [Example E3, 4-[5-(Cyclopropylmethoxy)-1,3-benzodioxol-4-yl]-N-[1-(methoxyacetyl)piperidin-4-yl]-6-methyl-5H-pyrrolo[3,2-d]pyrimidine-7-carboxamide], less than 1 nM.
`CCOC(=O)N1CCC(NC(=O)c2c(C)[nH]c3c(-c4c(OCC5CC5)ccc5c4OCO5)ncnc23)CC1` [Example E4, Ethyl 4-[({4-[5-(cyclopropylmethoxy)-1,3-benzodioxol-4-yl]-6-methyl-5H-pyrrolo[3,2-d]pyrimidin-7-yl}carbonyl)amino]piperidine-1-carboxylate]: the IC50 is less than 1 nM.
Regarding `CC(=O)N[C@H]1CC[C@H](NC(=O)c2c(C)[nH]c3c(-c4c(OCC5CC5)ccc5c4OCO5)ncnc23)CC1` [Example E5, N-(trans-4-acetamidocyclohexyl)-4-[5-(cyclopropylmethoxy)-1,3-benzodioxol-4-yl]-6-methyl-5H-pyrrolo[3,2-d]pyrimidine-7-carboxamide], the IC50 was less than 1 nM.
Regarding `CCC(=O)N[C@H]1CC[C@H](NC(=O)c2c(C)[nH]c3c(-c4c(OCC5CC5)ccc5c4OCO5)ncnc23)CC1` [Example E6, 4-[5-(Cyclopropylmethoxy)-1,3-benzodioxol-4-yl]-6-methyl-N-[trans-4-(propionylamino)cyclohexyl]-5H-pyrrolo[3,2-d]pyrimidine-7-carboxamide], the IC50 is less than 1 nM.
Take `COCC(=O)N[C@H]1CC[C@H](NC(=O)c2c(C)[nH]c3c(-c4c(OCC5CC5)ccc5c4OCO5)ncnc23)CC1` [Example E7, 4-[5-(Cyclopropylmethoxy)-1,3-benzodioxol-4-yl]-N-{trans-4-[(methoxyacetyl)amino]cyclohexyl}-6-methyl-5H-pyrrolo[3,2-d]pyrimidine-7-carboxamide]: the IC50 was less than 1 nM.
As to `CCOC(=O)N[C@H]1CC[C@H](NC(=O)c2c(C)[nH]c3c(-c4c(OCC5CC5)ccc5c4OCO5)ncnc23)CC1` [Example E8, Ethyl {trans-4-[({4-[5-(cyclopropylmethoxy)-1,3-benzodioxol-4-yl]-6-methyl-5H-pyrrolo[3,2-d]pyrimidin-7-yl}carbonyl)amino]cyclohexyl}carbamate], the IC50 is less than 1 nM.
With `CC(=O)N[C@H]1CC[C@@H](NC(=O)c2c(C)[nH]c3c(-c4c(OCC5CC5)ccc5c4OCO5)ncnc23)CC1` [Example E9, N-(cis-4-acetamidocyclohexyl)-4-[5-(cyclopropylmethoxy)-1,3-benzodioxol-4-yl]-6-methyl-5H-pyrrolo[3,2-d]pyrimidine-7-carboxamide], the IC50 was less than 1 nM.
As for `CCC(=O)N[C@H]1CC[C@@H](NC(=O)c2c(C)[nH]c3c(-c4c(OCC5CC5)ccc5c4OCO5)ncnc23)CC1` [Example E10, 4-[5-(Cyclopropylmethoxy)-1,3-benzodioxol-4-yl]-6-methyl-N-[cis-4-(propionylamino)cyclohexyl]-5H-pyrrolo[3,2-d]pyrimidine-7-carboxamide], the IC50 was less than 1 nM.
`COCC(=O)N[C@H]1CC[C@@H](NC(=O)c2c(C)[nH]c3c(-c4c(OCC5CC5)ccc5c4OCO5)ncnc23)CC1` [Example E11, 4-[5-(Cyclopropylmethoxy)-1,3-benzodioxol-4-yl]-N-{cis-4-[(methoxyacetyl)amino]cyclohexyl}-6-methyl-5H-pyrrolo[3,2-d]pyrimidine-7-carboxamide]: the IC50 is less than 1 nM.
On to `CCOC(=O)N[C@H]1CC[C@@H](NC(=O)c2c(C)[nH]c3c(-c4c(OCC5CC5)ccc5c4OCO5)ncnc23)CC1` [Example E12, Ethyl {cis-4-[({4-[5-(cyclopropylmethoxy)-1,3-benzodioxol-4-yl]-6-methyl-5H-pyrrolo[3,2-d]pyrimidin-7-yl}carbonyl)amino]cyclohexyl}carbamate], for which the IC50 was less than 1 nM.
With `CC(=O)N1CC[C@@H](NC(=O)c2c(C)[nH]c3c(-c4c(OCC5CC5)ccc5c4OCO5)ncnc23)C1` [Example E13, N-[(3R)-1-acetylpyrrolidin-3-yl]-4-[5-(cyclopropylmethoxy)-1,3-benzodioxol-4-yl]-6-methyl-5H-pyrrolo[3,2-d]pyrimidine-7-carboxamide], the IC50 was less than 1 nM.
As for `CCC(=O)N1CC[C@@H](NC(=O)c2c(C)[nH]c3c(-c4c(OCC5CC5)ccc5c4OCO5)ncnc23)C1` [Example E14, 4-[5-(Cyclopropylmethoxy)-1,3-benzodioxol-4-yl]-6-methyl-N-[(3R)-1-propionylpyrrolidin-3-yl]-5H-pyrrolo[3,2-d]pyrimidine-7-carboxamide], the IC50 is less than 1 nM.
Under `COCC(=O)N1CC[C@@H](NC(=O)c2c(C)[nH]c3c(-c4c(OCC5CC5)ccc5c4OCO5)ncnc23)C1` [Example E15, 4-[5-(Cyclopropylmethoxy)-1,3-benzodioxol-4-yl]-N-[(3R)-1-(methoxyacetyl)pyrrolidin-3-yl]-6-methyl-5H-pyrrolo[3,2-d]pyrimidine-7-carboxamide] stands less than 1 nM; under `CC(=O)N1CCC(NC(=O)c2c(C)[nH]c3c(-c4ccc(F)cc4OCC4CC4)ncnc23)CC1` [Example E19, N-(1-acetylpiperidin-4-yl)-4-[2-(cyclopropylmethoxy)-4-fluorophenyl]-6-methyl-5H-pyrrolo[3,2-d]pyrimidine-7-carboxamide], less than 1 nM; under `CCC(=O)N1CCC(NC(=O)c2c(C)[nH]c3c(-c4ccc(F)cc4OCC4CC4)ncnc23)CC1` [Example E20, 4-[2-(Cyclopropylmethoxy)-4-fluorophenyl]-6-methyl-N-(1-propionylpiperidin-4-yl)-5H-pyrrolo[3,2-d]pyrimidine-7-carboxamide], less than 1 nM.
`COCC(=O)N1CCC(NC(=O)c2c(C)[nH]c3c(-c4ccc(F)cc4OCC4CC4)ncnc23)CC1` [Example E21, 4-[2-(Cyclopropylmethoxy)-4-fluorophenyl]-N-[1-(methoxyacetyl)piperidin-4-yl]-6-methyl-5H-pyrrolo[3,2-d]pyrimidine-7-carboxamide]: the IC50 was less than 1 nM.
Next, `CC(=O)N[C@H]1CC[C@H](NC(=O)c2c(C)[nH]c3c(-c4ccc(F)cc4OCC4CC4)ncnc23)CC1` [Example E22, N-(trans-4-acetamidocyclohexyl)-4-[2-(cyclopropylmethoxy)-4-fluorophenyl]-6-methyl-5H-pyrrolo[3,2-d]pyrimidine-7-carboxamide]: less than 1 nM; `CCC(=O)N[C@H]1CC[C@H](NC(=O)c2c(C)[nH]c3c(-c4ccc(F)cc4OCC4CC4)ncnc23)CC1` [Example E23, 4-[2-(Cyclopropylmethoxy)-4-fluorophenyl]-6-methyl-N-[trans-4-(propionylamino)cyclohexyl]-5H-pyrrolo[3,2-d]pyrimidine-7-carboxamide]: less than 1 nM.
